# Measurements from publication PMC6409085, “Three odorant-binding proteins are involved in the behavioral response of Sogatella furcifera to rice plant volatiles” (PeerJ, 2019).
# Values joined by “and” are separate entries in the source; they are usually repeats but may differ in a detail not shown here. Equal values may be shown once.
# Key:
# Assay in all cases: biochemical
# Type in all cases: binding
# SfurOBP11 = SfurOBP11 (Sogatella furcifera, UniProt V5T6E3)
# Experimental: (§1) Thirty-six rice odorants ([He et al., 2014]; [Wang et al., 2017]) and 1-N-phenyl-naphthylamine (1-NPN) were purchased from Sigma-Aldrich (St Louis, MO, USA). These odorants and 1-NPN were dissolved in high-performance liquid chromatography (HPLC) purify grade methanol for 1.0 mM as work solution.
# (§2) Fluorescence competitive binding assays were performed on Tecan Spark 10M (Tecan Group Ltd., Männedorf, Switzerland) with the F96 Black ELIAS Plate (Sangon) ([Khuhro et al., 2017]; [Liu et al., 2017]). The solutions were excited at 337 nm and emission spectra were recorded between 390 and 490 nm. First, to test the binding constants of 1-NPN to the SfurOBPs, a 2.0 µM solution of protein in 50 mM Tris-HCl (pH = 7.4) was titrated with 1 mM 1-NPN to achieve virous concentrations. Next, the competitive binding of each odorant was measured using the 1-NPN as fluorescent reporter and odorant as competitor. The concentrations of protein and 1-NPN were both 2.0 µM, the odorant added after protein and 1-NPN added into the well of ELIAS Plate for 2 min. The final concentrations of each competitor were 2, 4, 6, 8, 10, 12, 14, 16, 18 and 20 µM. After 2 min of odorant added, the fluorescence intensity was measured and recorded. The volume of mixed solution in each well was maintained at 250 µL. Each interaction was performed in triplicates.
# (§3) GraphPad Prism 7.0 software (GraphPad Software, Inc., La Jolla, CA, USA) was used to calculated and generated the binding constants (K1−NPN) of 1-NPN to SfurOBPs and relative Scatchard plots ([Ban et al., 2003]; [Li et al., 2016]). Dissociation constant (Ki) of each odorant to SfurOBP was computed from the corresponding IC50 value (the half maximal inhibitory concentration), using the following equation: Ki=[IC50]/(1 + [1-NPN]/K1−NPN), where [1-NPN] is the free concentration of 1-NPN and K1−NPN is the dissociation constant of the complex protein/1-NPN.
# SfurOBP3 = SfurOBP3 (Sogatella furcifera, UniProt V5T818); settings: for Fluorescence competitive binding assay, fluorescence intensity: OBP3, three replicate columns
# Chain of SfurOBP3 (V5T818 entry or part of it): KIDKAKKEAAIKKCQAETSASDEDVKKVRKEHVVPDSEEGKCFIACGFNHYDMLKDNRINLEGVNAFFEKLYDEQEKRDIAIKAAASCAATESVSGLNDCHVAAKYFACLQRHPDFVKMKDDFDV
# Experimental: as §1, §2, §3
# SfurOBP1 = SfurOBP1 (Sogatella furcifera, UniProt V5T8N5); settings: for Fluorescence competitive binding assay, fluorescence intensity: OBP1, three replicate columns
# Chain of SfurOBP1 (V5T8N5 entry or part of it): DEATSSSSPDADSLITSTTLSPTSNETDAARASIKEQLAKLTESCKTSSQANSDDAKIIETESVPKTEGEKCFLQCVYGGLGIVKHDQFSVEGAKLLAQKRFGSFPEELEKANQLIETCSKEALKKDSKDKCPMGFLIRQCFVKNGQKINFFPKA
# Experimental: as §1, §2, §3
# SfurOBP2 = SfurOBP2 (Sogatella furcifera, UniProt V5T759)
# Chain of SfurOBP2 (V5T759 entry or part of it): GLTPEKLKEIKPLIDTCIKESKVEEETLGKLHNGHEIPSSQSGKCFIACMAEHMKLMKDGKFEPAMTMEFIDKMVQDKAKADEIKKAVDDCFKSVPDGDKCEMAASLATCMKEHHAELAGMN
# Experimental: as §1, §2, §3
# Chain of SfurOBP11 (V5T6E3 entry or part of it): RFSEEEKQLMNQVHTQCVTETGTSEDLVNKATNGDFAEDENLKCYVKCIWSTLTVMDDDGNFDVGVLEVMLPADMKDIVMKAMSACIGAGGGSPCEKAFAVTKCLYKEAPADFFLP
smiles,measurement,setting,value
O=C(c1ccccc1)c1ccccc1 [benzophenone],IC50,SfurOBP11,16.3 µM
same,"Fluorescence intensity, fluorescence competitive binding assay, OBP11","SfurOBP11; ligand concentration 2, replicate 1",21450
same,"Fluorescence intensity, fluorescence competitive binding assay, OBP11","SfurOBP11; ligand concentration 2, replicate 2",21005
same,"Fluorescence intensity, fluorescence competitive binding assay, OBP11","SfurOBP11; ligand concentration 2, replicate 3",21027
same,"Fluorescence intensity, fluorescence competitive binding assay, OBP11","SfurOBP11; ligand concentration 4, replicate 1",20588
same,"Fluorescence intensity, fluorescence competitive binding assay, OBP11","SfurOBP11; ligand concentration 4, replicate 2",20654
same,"Fluorescence intensity, fluorescence competitive binding assay, OBP11","SfurOBP11; ligand concentration 4, replicate 3",20719
same,"Fluorescence intensity, fluorescence competitive binding assay, OBP11","SfurOBP11; ligand concentration 6, replicate 1",19889
same,"Fluorescence intensity, fluorescence competitive binding assay, OBP11","SfurOBP11; ligand concentration 6, replicate 2",20401
same,"Fluorescence intensity, fluorescence competitive binding assay, OBP11","SfurOBP11; ligand concentration 6, replicate 3",19317
same,"Fluorescence intensity, fluorescence competitive binding assay, OBP11","SfurOBP11; ligand concentration 8, replicate 1",19997
same,"Fluorescence intensity, fluorescence competitive binding assay, OBP11","SfurOBP11; ligand concentration 8, replicate 2",20308
same,"Fluorescence intensity, fluorescence competitive binding assay, OBP11","SfurOBP11; ligand concentration 8, replicate 3",18308
same,"Fluorescence intensity, fluorescence competitive binding assay, OBP11","SfurOBP11; ligand concentration 10, replicate 1",18532
same,"Fluorescence intensity, fluorescence competitive binding assay, OBP11","SfurOBP11; ligand concentration 10, replicate 2",18946
same,"Fluorescence intensity, fluorescence competitive binding assay, OBP11","SfurOBP11; ligand concentration 10, replicate 3",17435
same,"Fluorescence intensity, fluorescence competitive binding assay, OBP11","SfurOBP11; ligand concentration 12, replicate 1",17719
same,"Fluorescence intensity, fluorescence competitive binding assay, OBP11","SfurOBP11; ligand concentration 12, replicate 2",18881
same,"Fluorescence intensity, fluorescence competitive binding assay, OBP11","SfurOBP11; ligand concentration 12, replicate 3",17057
same,"Fluorescence intensity, fluorescence competitive binding assay, OBP11","SfurOBP11; ligand concentration 14, replicate 1",16744
same,"Fluorescence intensity, fluorescence competitive binding assay, OBP11","SfurOBP11; ligand concentration 14, replicate 2",17392
same,"Fluorescence intensity, fluorescence competitive binding assay, OBP11","SfurOBP11; ligand concentration 14, replicate 3",16199
same,"Fluorescence intensity, fluorescence competitive binding assay, OBP11","SfurOBP11; ligand concentration 16, replicate 1",16069
same,"Fluorescence intensity, fluorescence competitive binding assay, OBP11","SfurOBP11; ligand concentration 16, replicate 2",15955
same,"Fluorescence intensity, fluorescence competitive binding assay, OBP11","SfurOBP11; ligand concentration 16, replicate 3",16012
same,"Fluorescence intensity, fluorescence competitive binding assay, OBP11","SfurOBP11; ligand concentration 18, replicate 1",16341
same,"Fluorescence intensity, fluorescence competitive binding assay, OBP11","SfurOBP11; ligand concentration 18, replicate 2",15453
same,"Fluorescence intensity, fluorescence competitive binding assay, OBP11","SfurOBP11; ligand concentration 18, replicate 3",16084
same,"Fluorescence intensity, fluorescence competitive binding assay, OBP11","SfurOBP11; ligand concentration 20, replicate 1",15275
same,"Fluorescence intensity, fluorescence competitive binding assay, OBP11","SfurOBP11; ligand concentration 20, replicate 2",14432
same,"Fluorescence intensity, fluorescence competitive binding assay, OBP11","SfurOBP11; ligand concentration 20, replicate 3",14489
same,IC50,SfurOBP3,> 20 µM
same,"Fluorescence competitive binding assay, fluorescence intensity",SfurOBP3; ligand concentration 2,66323 and 67865 and 69406
same,"Fluorescence competitive binding assay, fluorescence intensity",SfurOBP3; ligand concentration 4,72270 and 71733 and 72815
same,"Fluorescence competitive binding assay, fluorescence intensity",SfurOBP3; ligand concentration 6,57537 and 56825 and 55208
same,"Fluorescence competitive binding assay, fluorescence intensity",SfurOBP3; ligand concentration 8,58199 and 53071 and 55635
same,"Fluorescence competitive binding assay, fluorescence intensity",SfurOBP3; ligand concentration 10,54477 and 51518 and 50551
same,"Fluorescence competitive binding assay, fluorescence intensity",SfurOBP3; ligand concentration 12,55084 and 52185 and 53632
same,"Fluorescence competitive binding assay, fluorescence intensity",SfurOBP3; ligand concentration 14,52805 and 53281 and 53058
same,"Fluorescence competitive binding assay, fluorescence intensity",SfurOBP3; ligand concentration 16,41260 and 41464 and 41332
same,"Fluorescence competitive binding assay, fluorescence intensity",SfurOBP3; ligand concentration 18,39853 and 41331 and 40577
same,"Fluorescence competitive binding assay, fluorescence intensity",SfurOBP3; ligand concentration 20,39610 and 40773 and 38426
same,IC50,SfurOBP1,> 20 µM
same,"Fluorescence competitive binding assay, fluorescence intensity",SfurOBP1; ligand concentration 2 (μM),4924 and 4810 and 4695
same,"Fluorescence competitive binding assay, fluorescence intensity",SfurOBP1; ligand concentration 4 (μM),5262 and 5281 and 5299
same,"Fluorescence competitive binding assay, fluorescence intensity",SfurOBP1; ligand concentration 6 (μM),5268 and 5717 and 5292
same,"Fluorescence competitive binding assay, fluorescence intensity",SfurOBP1; ligand concentration 8 (μM),5360 and 5130 and 5580
same,"Fluorescence competitive binding assay, fluorescence intensity",SfurOBP1; ligand concentration 10 (μM),5344 and 5432 and 5519
same,"Fluorescence competitive binding assay, fluorescence intensity",SfurOBP1; ligand concentration 12 (μM),5178 and 5515 and 5347
same,"Fluorescence competitive binding assay, fluorescence intensity",SfurOBP1; ligand concentration 14 (μM),5173 and 5557 and 5365
same,"Fluorescence competitive binding assay, fluorescence intensity",SfurOBP1; ligand concentration 16 (μM),5828 and 4931 and 5380
same,"Fluorescence competitive binding assay, fluorescence intensity",SfurOBP1; ligand concentration 18 (μM),5476 and 5297 and 5257
same,"Fluorescence competitive binding assay, fluorescence intensity",SfurOBP1; ligand concentration 20 (μM),5039 and 5512 and 5595
same,IC50,SfurOBP2,> 20 µM
same,"Fluorescence competitive binding assay, OBP2 (raw fluorescence reading)","SfurOBP2; ligand concentration 2 (unit not given), replicate column 1 of 3",16222
same,"Fluorescence competitive binding assay, OBP2 (raw fluorescence reading)","SfurOBP2; ligand concentration 2 (unit not given), replicate column 2 of 3",16950
same,"Fluorescence competitive binding assay, OBP2 (raw fluorescence reading)","SfurOBP2; ligand concentration 2 (unit not given), replicate column 3 of 3",16565
same,"Fluorescence competitive binding assay, OBP2 (raw fluorescence reading)","SfurOBP2; ligand concentration 4 (unit not given), replicate column 1 of 3",15645
same,"Fluorescence competitive binding assay, OBP2 (raw fluorescence reading)","SfurOBP2; ligand concentration 4 (unit not given), replicate column 2 of 3",17125
same,"Fluorescence competitive binding assay, OBP2 (raw fluorescence reading)","SfurOBP2; ligand concentration 4 (unit not given), replicate column 3 of 3",16794
same,"Fluorescence competitive binding assay, OBP2 (raw fluorescence reading)","SfurOBP2; ligand concentration 6 (unit not given), replicate column 1 of 3",16160
same,"Fluorescence competitive binding assay, OBP2 (raw fluorescence reading)","SfurOBP2; ligand concentration 6 (unit not given), replicate column 2 of 3",16241
same,"Fluorescence competitive binding assay, OBP2 (raw fluorescence reading)","SfurOBP2; ligand concentration 6 (unit not given), replicate column 3 of 3",16073
same,"Fluorescence competitive binding assay, OBP2 (raw fluorescence reading)","SfurOBP2; ligand concentration 8 (unit not given), replicate column 1 of 3",14263
same,"Fluorescence competitive binding assay, OBP2 (raw fluorescence reading)","SfurOBP2; ligand concentration 8 (unit not given), replicate column 2 of 3",14653
same,"Fluorescence competitive binding assay, OBP2 (raw fluorescence reading)","SfurOBP2; ligand concentration 8 (unit not given), replicate column 3 of 3",15131
same,"Fluorescence competitive binding assay, OBP2 (raw fluorescence reading)","SfurOBP2; ligand concentration 10 (unit not given), replicate column 1 of 3",13747
same,"Fluorescence competitive binding assay, OBP2 (raw fluorescence reading)","SfurOBP2; ligand concentration 10 (unit not given), replicate column 2 of 3",14449
same,"Fluorescence competitive binding assay, OBP2 (raw fluorescence reading)","SfurOBP2; ligand concentration 10 (unit not given), replicate column 3 of 3",15134
same,"Fluorescence competitive binding assay, OBP2 (raw fluorescence reading)","SfurOBP2; ligand concentration 12 (unit not given), replicate column 1 of 3",12905
same,"Fluorescence competitive binding assay, OBP2 (raw fluorescence reading)","SfurOBP2; ligand concentration 12 (unit not given), replicate column 2 of 3",13209
same,"Fluorescence competitive binding assay, OBP2 (raw fluorescence reading)","SfurOBP2; ligand concentration 12 (unit not given), replicate column 3 of 3",14417
same,"Fluorescence competitive binding assay, OBP2 (raw fluorescence reading)","SfurOBP2; ligand concentration 14 (unit not given), replicate column 1 of 3",11252
same,"Fluorescence competitive binding assay, OBP2 (raw fluorescence reading)","SfurOBP2; ligand concentration 14 (unit not given), replicate column 2 of 3",12436
same,"Fluorescence competitive binding assay, OBP2 (raw fluorescence reading)","SfurOBP2; ligand concentration 14 (unit not given), replicate column 3 of 3",12979
same,"Fluorescence competitive binding assay, OBP2 (raw fluorescence reading)","SfurOBP2; ligand concentration 16 (unit not given), replicate column 1 of 3",11787
same,"Fluorescence competitive binding assay, OBP2 (raw fluorescence reading)","SfurOBP2; ligand concentration 16 (unit not given), replicate column 2 of 3",11767
same,"Fluorescence competitive binding assay, OBP2 (raw fluorescence reading)","SfurOBP2; ligand concentration 16 (unit not given), replicate column 3 of 3",11673
same,"Fluorescence competitive binding assay, OBP2 (raw fluorescence reading)","SfurOBP2; ligand concentration 18 (unit not given), replicate column 1 of 3",12436
same,"Fluorescence competitive binding assay, OBP2 (raw fluorescence reading)","SfurOBP2; ligand concentration 18 (unit not given), replicate column 2 of 3",11331
same,"Fluorescence competitive binding assay, OBP2 (raw fluorescence reading)","SfurOBP2; ligand concentration 18 (unit not given), replicate column 3 of 3",11969
same,"Fluorescence competitive binding assay, OBP2 (raw fluorescence reading)","SfurOBP2; ligand concentration 20 (unit not given), replicate column 1 of 3",11423
same,"Fluorescence competitive binding assay, OBP2 (raw fluorescence reading)","SfurOBP2; ligand concentration 20 (unit not given), replicate column 2 of 3",12242
same,"Fluorescence competitive binding assay, OBP2 (raw fluorescence reading)","SfurOBP2; ligand concentration 20 (unit not given), replicate column 3 of 3",11724
